Results: patent US20240307419A1, “CONFORMATIONALLY-CONSTRAINED INHIBITORS OF 3C OR 3C-LIKE PROTEASES” (priority 2021, published 2024)
Like-named read-outs stand apart in the source and are kept apart here.

Assays:
SARS-CoV-2 3CLpro = SARS-CoV-2 3CLpro (Severe acute respiratory syndrome coronavirus 2 (2019-nCoV) (SARS-CoV-2), UniProt P0DTD1); test: biochemical; assay type: biochemical
MERS-CoV 3CLpro = MERS-CoV 3CLpro (Middle East respiratory syndrome-related coronavirus (isolate United Kingdom/H123990006/2012) (MERS-CoV) (Betacoronavirus England 1), UniProt K9N7C7); assay type: biochemical
Sequence of MERS-CoV 3CLpro (K9N7C7 3248-3553 limits assumed): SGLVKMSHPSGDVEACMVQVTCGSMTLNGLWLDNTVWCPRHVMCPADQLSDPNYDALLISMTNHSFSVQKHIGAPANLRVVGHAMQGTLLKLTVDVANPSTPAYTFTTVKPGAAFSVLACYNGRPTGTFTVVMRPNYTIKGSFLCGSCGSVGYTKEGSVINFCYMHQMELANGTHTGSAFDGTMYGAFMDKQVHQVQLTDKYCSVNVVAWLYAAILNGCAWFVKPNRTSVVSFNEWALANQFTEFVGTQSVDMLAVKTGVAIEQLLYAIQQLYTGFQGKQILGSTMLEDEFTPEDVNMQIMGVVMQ

SARS-CoV-2 [1] = test system: SARS-CoV-2
[2] = test system: Huh-7, CRFK, or CCL1 cells
SARS-CoV-2 [3] = test: in vitro; conditions: African green monkey
SARS-CoV-2 [4] = test: microbe, parasite or virus in culture; conditions: Severe acute respiratory syndrome coronavirus 2, Vero C1008, read-out: EC50 against SARS-CoV-2 in Vero E6 cells
SARS-CoV-2 replicon [5] = test: microbe, parasite or virus in culture; assay type: cell-based; conditions: read-out: EC50, SARS-CoV-2 replicon assay
CRFK cells = conditions: cat
SARS-CoV-2 replicon [6] = conditions: 293T cells, previously reported; read-out: EC50 previously reported with the same system; cited from earlier work
[7] = test system: feline infectious peritonitis virus (FIPV); conditions: cell culture and naturally infected animals with long term treatment; previously reported; cited from earlier work
[8] = Severe acute respiratory syndrome coronavirus 2, HEK-293T, 30 h

SMILES	IC50 (SARS-CoV-2 3CLpro; read-out: IC50) [nM]	IC50 (MERS-CoV 3CLpro) [nM]	EC50 lower than the corresponding IC50 values (SARS-CoV-2 [1]) [fold]	CC50 [2] [nM]	EC50 (SARS-CoV-2 replicon [5]; [8]) [nM]	CC50 (CRFK cells) [nM]	also measured
CC(C)C[C@H](NC(=O)OC[C@@H]1C[C@@H]2CCC[C@@H](C2)C1)C(=O)N[C@H](C=O)C[C@@H]1CCNC1=O [Compound 2a, ((1R,3s,5S)-Bicyclo[3.3.1]nonan-3-yl)methyl ((S)-4-methyl-1-oxo-1-(((S)-1-oxo-3-((S)-2-oxopyrrolidin-3-yl)propan-2-yl)amino)pentan-2-yl)carbamate]	180 ± 30	52 ± 1	~4.6	> 100000			selectivity indices (SARS-CoV-2 [1]): 2857; EC50 (SARS-CoV-2 [1]; read-out: EC50 against SARS-CoV-2 in Vero E6 cells): 35 nM
CC(C)C[C@H](NC(=O)OCC1C[C@H]2CCC[C@@H](C1)C2)C(=O)N[C@@H](C[C@@H]1CCNC1=O)C(O)S(=O)(=O)[O-].[Na+] (stereo partly drawn) [Compound 3a, Sodium (2S)-2-((2S)-2-(((((1R,5S)-bicyclo[3.3.1]nonan-3-yl)methoxy)carbonyl)amino)-4-methylpentanamido)-1-hydroxy-3-((S)-2-oxopyrrolidin-3-yl)propane-1-sulfonate]	170 ± 20	49 ± 2	~4.6	> 100000			selectivity ratio (SARS-CoV-2 [3]): 3120; EC50 (SARS-CoV-2 [4]): 32 nM
CC(C)C[C@H](NC(=O)OC1CC2(CCN(C(=O)OC(C)(C)C)CC2)C1)C(=O)N[C@H](C=O)C[C@H]1CCNC1=O [Compound 7b, Tert-butyl 2-((((S)-4-methyl-1-oxo-1-(((S)-1-oxo-3-((R)-2-oxopyrrolidin-3-yl)propan-2-yl)amino)pentan-2-yl)carbamoyl)oxy)-7-azaspiro[3.5]nonane-7-carboxylate]					90	> 100000	IC50 lower than that of compound 1b (SARS-CoV-2 3CLpro): > 9 fold
CC(C)C[C@H](NC(=O)OCC1CN(C(=O)OC(C)(C)C)C1)C(=O)N[C@@H](C[C@H]1CCNC1=O)C(O)S(=O)(=O)O (stereo partly drawn) [Compound 14c, Sodium (2S)-2-((S)-2-((((1-(tert-butoxycarbonyl)azetidin-3-yl)methoxy)carbonyl)amino)-4-methylpentanamido)-1-hydroxy-3-((R)-2-oxopyrrolidin-3-yl)propane-1-sulfonate]					430	> 100000	IC50 (SARS-CoV-2 3CLpro): 50 nM
CC(C)C[C@H](NC(=O)OCc1ccccc1)C(=O)N[C@@H](CC1CCNC1=O)C(O)S(=O)(=O)O (stereo partly drawn) [GC376]							EC50 (SARS-CoV-2 replicon [5]): 37 ± 10 nM; EC50 (SARS-CoV-2 replicon [6]): 20 nM
CC(C)C[C@H](NC(=O)OCc1ccccc1)C(=O)N[C@@H](C[C@@H]1CCNC1=O)C(O)S(=O)(=O)[O-].[Na+] (stereo partly drawn) [GC376]							barrier to resistance to FIPV [7]: high barrier to resistance
